ChEMBL document CHEMBL1145219, “A new strategy to combat Alzheimer's disease. Combining radical-scavenging potential with metal-protein-attenuating ability in one molecule” (Bioorg Med Chem Lett, 2005)

System: Cell line
Experiment: Radical-scavenging potency with metal-protein-attenuating ability in human was determined
Assay type: functional, cell-based

EC50 (cell line) | EC50 (Homo sapiens, Cell line) | Compound
560 nM |  | N,N0-butylene bis-(2-acetylpyridine iminato) copper(II)
2330 nM |  | N,N0-propylene bis-(2-acetylpyridine iminato) copper(II)
11000 nM |  | N,N0-ethylene bis-(2-acetylpyridine iminato) copper(II)
 | 760 nM | c1ccc2[nH]c(CN3CCNCCN(Cc4nc5ccccc5[nH]4)CC3)nc2c1
 | 900 nM | c1ccc2[nH]c(CN3CCNCCNCC3)nc2c1
